# Experimental data as given in patent publication US6638966B2 (University of Iowa Research Foundation, priority 2000, dated 2003).
# Legend:
# [1] = Anesthetic effect compared with melatonin; details: in vivo
# rats [2] = experiment: Cumulative i.v. doses: indices of anesthesia in rats (righting reflex, grip strength, eyelash reflex, paw withdrawal threshold); type: in vivo, rat; details: for estimated ED95 (and 95% CI) for loss of righting reflex: cumulative i.v. injection of divided doses; for effect on righting reflex, grip strength and eyelash reflex: three cumulative i.v. doses about 1 min apart: 6.67 mg/kg thiopental, 3.3 mg/kg propofol, 70 mg/kg melatonin
# Experimental: (§1) After the final cumulative dose, measurements of anesthesia end-points were made at fixed intervals for an additional 20 minutes. […] Measurements of anesthesia end-points were made in these rats at fixed intervals for 20 minutes. Righting reflex was scored on a four-point scale (1=immediate/brisk, both feet under the rat; 2=complete, but slower than normal; 3=slow, feet not placed under body; and 4=absent). The threshold pressure (mm Hg) at which the rat withdrew or vocalized after pinch of one hindpaw was measured. For paw pinch, a subminiature, very low profile load cell Omega part number LCKD-1KG, measurement range of 0-1 kg) (OMEGA Engineering, INC., Stamford, Conn.) was used to measure the amount of pressure applied to the rat's paw. The action of compressing the load cell between the faces of the sponge clamp assembly results in a change in impedance within the load cell, and this in turn, was then converted to mm Hg pressure by the monitor. The presence or absence of eyelash reflex was noted on a three-point scale (1=normal, 2=weak; and 3=absent). The strength of grip by the forepaws was determined on a four-point scale (0=absent, 1=weak, 2=moderate and 3=strong).
# (§2) Thiopental was purchased from Abbott Laboratories (Northern Chicago, Ill.). Propofol was purchased from Zeneca Pharmaceuticals (Wilmington, Del.). […] Thiopental and propofol were dissolved in saline and Intralipid™ respectively. […] For the bolus injections, the volume of drug injected ranged from 0.6 to 0.75 ml.
# male Sprague-Dawley rats = experiment: Anesthetic effect of melatonin given through a jugular catheter to rats (Intralipid and cyclodextrin preparations); type: in vivo, rat; details: for anesthetic effect (righting reflex) / anesthetic effect (righting reflex, eyelash reflex, hind paw pressure): 50 mg/ml
# Experimental: All experiments were carried out in male Sprague-Dawley rats (300-350 g). Rats were maintained on a 12 hour light/12 hour dark cycle with free access to food and water. All surgical procedures were performed under sterile conditions (skin preparation, sterile filed drape, gloves, mask, etc.). All instruments and materials were ethylene oxide sterilized. Non-fasting adult male Sprague Dawley rats (˜300 gm) were anesthetized with halothane in oxygen and weighed. The hair over the ventral neck and over the back (between the scapulae) was removed with an electric razor. In the supine position the ventral neck was washed with povidone-iodine, followed by a 3-cm skin incision, just left of mid-line. All bleeding points were cauterized. Both the left jugular vein and left common carotid artery were isolated via blunt dissection. The left jugular vein was cannulated with a heparinized (20 U/ml) saline-filled silastic catheter (0.012-in ID, 0.025-in OD) advanced ˜3-cm into the right atrium. The jugular catheter was secured to the vein with 4-0 silk at the point of insertion, as well as at the rostral jugular ligature. After implantation of intravascular catheters, rats were housed in individual stainless steel cages. […] Crystalline Melatonin powder was obtained from Sigma (Sigma Chemical Co. St. Louis, Mo.).
# rats [3] = details: rat, in vivo, iv
# rats [4] = experiment: Single bolus i.v. injection: time course of indices of anesthesia in rats; type: in vivo, rat; details: for time for which loss of righting reflex and grip strength was maximal: single i.v. bolus: 10 mg/kg propofol; for time for which loss of righting reflex and grip strength was maximal / effect on paw withdrawal threshold / effect on righting reflex and grip strength: 275 mg/kg melatonin; for effect on paw withdrawal threshold / effect on righting reflex and grip strength / time by which loss of righting reflex and grip strength resolved: single i.v. bolus: 20 mg/kg thiopental, 10 mg/kg propofol; for time by which loss of righting reflex and grip strength resolved: 275 mg/kg melatonin (near baseline values)
# Experimental: as §1, §2
# [5] = Solubility of melatonin in 1-methyl-2-pyrrolidinone/propylene glycol/water solvent; type: physicochemical; details: solvent: 1 volume 1-methyl-2-pyrrolidinone, 1 volume propylene glycol, 2 volumes water
# Text: The volume ratios here expressed are preferred but generally can be within the range of 25% or less by volume of 1-methyl-2-pyrrolidinone.
# patients = details: low-level doses sublingually, British Journal of Anesthesia 82(6):875-80(1999); cited from earlier work
# [6] = Rat 1, 315 mg/kg, in 40% cyclodextrin
# [7] = Rat 2, 374 mg/kg, in 40% cyclodextrin
smiles,measurement,setting,value
COc1ccc2[nH]c(C(F)(F)F)c(CCNC(C)=O)c2c1 [2-trifluoromethylmelatonin],anesthetic effect relative to melatonin,[1],substantially more active in anesthetic effect than melatonin itself
"COc1ccc2[nH]cc(CCNC(C)=O)c2c1 [melatonin, N-acetyl-5-methoxytryptamine]",effect on paw withdrawal threshold,rats [2]; cumulative i.v. doses of 70 mg/kg,dose-dependently increased paw withdrawal threshold
same,estimated ED95 (and 95% CI) for loss of righting reflex,rats [2],312 (205-476) mg/kg
same,doses at which the increase in paw withdrawal threshold was apparent,rats [2]; i.v.,≥ 140 mg/kg
same,"effect on righting reflex, grip strength and eyelash reflex",rats [2],"progressive loss of righting reflex and grip strength, but did not appreciably blunt the eyelash reflex"
same,anesthetic effect (righting reflex),"male Sprague-Dawley rats; Rat 1, 250 mg/kg followed about 1 minute later by 65 mg/kg, Intralipid + Ringer's Lactate",very drugged but did not lose righting reflex
same,anesthetic effect (righting reflex),"male Sprague-Dawley rats; Rat 1, 315 mg/kg, cyclodextrin 40% + Intralipid",moves slowly but no loss of righting reflex
same,"anesthetic effect (ptosis, eye blink, paw pinch)",male Sprague-Dawley rats; [6],"ptosis, loss of eye blink response and loss of paw pinch response to a pressure of 60 mmHg"
same,time for which the righting reflex was lost,male Sprague-Dawley rats; [6],27 min
same,"anesthetic effect (righting reflex, eyelash reflex, hind paw pressure)","male Sprague-Dawley rats; Rat 2, 250 mg/kg, Intralipid + Ringer's Lactate",loss of righting and eyelash reflexes and inability to pull his hind paw in response to pressure applied to it
same,"anesthetic effect (ptosis, eye blink)",male Sprague-Dawley rats; [7],ptosis and loss of eye blink response
same,time for which the righting reflex was lost,male Sprague-Dawley rats; [7],15 min
same,paw pinch response,"male Sprague-Dawley rats; Rat 2, 374 mg/kg, in 40% cyclodextrin, pressure of 60 mmHg",pulling his paw without vocalization
same,anesthetic effect (righting reflex),"male Sprague-Dawley rats; Rat 2, 460 mg/kg, cyclodextrin 40% + Intralipid",loss of righting reflex
same,"anesthetic effect (righting reflex, eyelash reflex, hind paw pressure)","male Sprague-Dawley rats; Rat 3, 320 mg/kg, Intralipid + Ringer's Lactate",loss of righting and eyelash reflexes and inability to pull his hind paw in response to pressure applied to it
same,"anesthetic effect (righting reflex, eyelash reflex, hind paw pressure)","male Sprague-Dawley rats; Rat 4, 370 mg/kg, Intralipid + Ringer's Lactate",loss of righting and eyelash reflexes and inability to pull his hind paw in response to pressure applied to it
same,toxic side effects,rats [3],without causing toxic side effects
same,time for which the increase in paw withdrawal threshold persisted,rats [4]; single i.v. bolus 275 mg/kg,at least 20 min
same,time for which loss of righting reflex and grip strength was maximal,rats [4],5 min
same,effect on paw withdrawal threshold,rats [4],increased paw withdrawal threshold as compared to vehicle
same,effect on righting reflex and grip strength,rats [4],immediate loss of righting reflex and grip strength
same,time by which loss of righting reflex and grip strength resolved,rats [4],≤ 15 min
same,concentration to which melatonin can be dissolved,[5],≤ 300000 µg/mL
same,anxiety and sedation before operation,patients,significant decrease in anxiety levels and an increase in levels of sedation before operation
CC(C)c1cccc(C(C)C)c1O [propofol],estimated ED95 (and 95% CI) for loss of righting reflex,rats [2],14.9 (6.4-34.9) mg/kg
same,"effect on righting reflex, grip strength and eyelash reflex",rats [2],"progressive loss of righting reflex, grip strength and eyelash reflex"
same,time for which loss of righting reflex and grip strength was maximal,rats [4],5 min
same,effect on paw withdrawal threshold,rats [4],significant increase in paw withdrawal threshold of similar duration
same,effect on righting reflex and grip strength,rats [4],immediate loss of righting reflex and grip strength
same,time by which loss of righting reflex and grip strength resolved,rats [4],≤ 10 min
CCCC(C)C1(CC)C(=O)NC(=S)NC1=O (stereo not drawn) [thiopental],estimated ED95 (and 95% CI) for loss of righting reflex,rats [2],23.8 (15.4-36.7) mg/kg
same,"effect on righting reflex, grip strength and eyelash reflex",rats [2],"progressive loss of righting reflex, grip strength and eyelash reflex"
same,time at which loss of righting reflex and grip strength was maximal,rats [4]; single i.v. bolus 20 mg/kg,1 min
same,effect on paw withdrawal threshold,rats [4],not accompanied by a change in paw withdrawal threshold
same,effect on righting reflex and grip strength,rats [4],immediate loss of righting reflex and grip strength
same,time by which loss of righting reflex and grip strength resolved,rats [4],≤ 15 min
